Our source for the half-life values is PMC2877487 (Bioorganic & medicinal chemistry letters, 2009).

Read-outs that look alike come from different tables or passages of the source.

The nature of data set [1]: Stability by HPLC peak area decrease, first order decay half-life. The note with it: culture media, First order decay half-life (t1/2). The class given is physicochemical.
The conditions of data set [2]: buffer; cited from earlier work.

For orientation: half-life means the time needed for the level to fall by half in the phase considered. The compound `C[C@@]12c3ccc4c(c3C(=O)c3occ(c31)C(=O)C[C@H]2OC(=O)CCC(=O)O)CCC4=O` [SA-Dmv] yielded a half-life in data set [1] of less than 1 min.

On to `COC[C@H]1OC(=O)c2coc3c2[C@@]1(C)C1=C(C3=O)[C@@H]2CCC(=O)[C@@]2(C)C[C@H]1OC(C)=O` [Wm, wortmannin], for which the values for the half-life in data set [2] and in data set [1] were 57.8 h and less than 1 min, respectively.
